According to article PMC4144712 (Biochemistry, 2014):

What was measured:
CXCR4 = CXCR4 (Homo sapiens, UniProt P61073); test: CXCR4-FITC-DV1 competitive binding assay; conditions: CHO-CXCR4 cells; 800 nM FITC-DV1
CCR5 = test: Inhibition of FITC-DV1 binding in CCR5-expressing cell line; conditions: data not shown
CCR3 = test: Inhibition of FITC-DV1 binding in CCR3-expressing cell line; conditions: data not shown

CXCR4, sequence (P61073 whole entry): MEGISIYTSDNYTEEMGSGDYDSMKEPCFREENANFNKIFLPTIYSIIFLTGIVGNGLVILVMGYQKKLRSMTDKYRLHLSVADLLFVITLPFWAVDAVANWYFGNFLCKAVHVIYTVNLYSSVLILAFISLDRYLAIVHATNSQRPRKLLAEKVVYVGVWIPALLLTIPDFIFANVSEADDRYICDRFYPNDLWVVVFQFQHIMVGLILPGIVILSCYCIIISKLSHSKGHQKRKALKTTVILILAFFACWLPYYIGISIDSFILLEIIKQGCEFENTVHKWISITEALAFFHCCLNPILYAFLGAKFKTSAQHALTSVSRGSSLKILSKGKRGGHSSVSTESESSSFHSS

Compound | inhibition of the binding of FITC-DV1 to CXCR4 (in words) (CXCR4) | inhibition of the binding of FITC-DV1 in CCR5-expressing cell line (CCR5) | inhibition of the binding of FITC-DV1 in CCR3-expressing cell line (CCR3)
c1cc(CN2CCCNCCNCCCNCC2)ccc1CN1CCCNCCNCCCNCC1 [AMD3100] | inhibited the binding of FITC-DV1 to CXCR4 |  | 
RANTES: a common ligand of CCR5 and CCR3 |  | Neither ubiquitin, a ligand of CXCR4, nor RANTES (a common ligand of CCR5 and CCR3) inhibited the binding of FITC-DV1 | Neither ubiquitin, a ligand of CXCR4, nor RANTES (a common ligand of CCR5 and CCR3) inhibited the binding of FITC-DV1
